Data set [1] can be described thus: Chemical stability of Compound A towards hydrolysis. The format is physicochemical.
Another data set relates to TNF-α. Conditions: LPS-stimulated hPBMC and human whole blood; background statement; cited from earlier work.
The subject of the next data set is IL-1β. The note with it: LPS-stimulated hPBMC and human whole blood; background statement; cited from earlier work.
The next data set deals with IL-10. The note with it: LPS-stimulated hPBMC and human whole blood; background statement; cited from earlier work.
In another data set the test system is T cells. The note with it: background statement; cited from earlier work.

Entries after “also recorded” stand apart in the source; their conditions may differ.

As to `O=C1CC[C@H](N2Cc3c(OCc4ccc(CN5CCOCC5)cc4)cccc3C2=O)C(=O)N1` [Compound A, (S)-3-(4-((4-(morpholinomethyl)benzyl)oxy)-1-oxoisoindolin-2-yl)piperidine-2,6-dione], the “Susceptibility to hydrolysis, in words” value in data set [1] was “prone to hydrolysis; also recorded: easily degraded by hydrolysis”. In addition, in the data set with TNF-α, the “Degradation of TNF-α mRNA, in words” value is reported as “enhances” and the “Inhibition of TNF-α, in words” value is on record as “markedly inhibits”. In addition, the “Inhibition of IL-1β, in words” value in the data set on IL-1β is “potently inhibits”. Besides, in the data set with IL-10, the “Effect on IL-10, in words” value is “stimulates”. Besides, the “Co-stimulation of T cells, in words” value with T cells is recorded as “potent co-stimulator”.

Values taken from USRE50917E1, “Formulations of (s)-3-(4-((4-(morpholinomethyl)benzyl)oxy)-1-oxoisoindolin-2-yl)piperidine-2,6-dione” (Celgene Corporation, priority 2013, dated 2026).
